From ChEMBL document CHEMBL2074341, “Biliary excretion of flavopiridol and its glucuronides in the isolated perfused rat liver: role of multidrug resistance protein 2 (Mrp2)” (Life Sci, 2003)

Biological target: ATP-binding cassette sub-family C member 2 (Rattus norvegicus, UniProt Q63120)
Test: TP_TRANSPORTER: transport activity, in vitro, Wistar vs TR-
Assay type: functional

Sequence of ATP-binding cassette sub-family C member 2 (Q63120 whole entry): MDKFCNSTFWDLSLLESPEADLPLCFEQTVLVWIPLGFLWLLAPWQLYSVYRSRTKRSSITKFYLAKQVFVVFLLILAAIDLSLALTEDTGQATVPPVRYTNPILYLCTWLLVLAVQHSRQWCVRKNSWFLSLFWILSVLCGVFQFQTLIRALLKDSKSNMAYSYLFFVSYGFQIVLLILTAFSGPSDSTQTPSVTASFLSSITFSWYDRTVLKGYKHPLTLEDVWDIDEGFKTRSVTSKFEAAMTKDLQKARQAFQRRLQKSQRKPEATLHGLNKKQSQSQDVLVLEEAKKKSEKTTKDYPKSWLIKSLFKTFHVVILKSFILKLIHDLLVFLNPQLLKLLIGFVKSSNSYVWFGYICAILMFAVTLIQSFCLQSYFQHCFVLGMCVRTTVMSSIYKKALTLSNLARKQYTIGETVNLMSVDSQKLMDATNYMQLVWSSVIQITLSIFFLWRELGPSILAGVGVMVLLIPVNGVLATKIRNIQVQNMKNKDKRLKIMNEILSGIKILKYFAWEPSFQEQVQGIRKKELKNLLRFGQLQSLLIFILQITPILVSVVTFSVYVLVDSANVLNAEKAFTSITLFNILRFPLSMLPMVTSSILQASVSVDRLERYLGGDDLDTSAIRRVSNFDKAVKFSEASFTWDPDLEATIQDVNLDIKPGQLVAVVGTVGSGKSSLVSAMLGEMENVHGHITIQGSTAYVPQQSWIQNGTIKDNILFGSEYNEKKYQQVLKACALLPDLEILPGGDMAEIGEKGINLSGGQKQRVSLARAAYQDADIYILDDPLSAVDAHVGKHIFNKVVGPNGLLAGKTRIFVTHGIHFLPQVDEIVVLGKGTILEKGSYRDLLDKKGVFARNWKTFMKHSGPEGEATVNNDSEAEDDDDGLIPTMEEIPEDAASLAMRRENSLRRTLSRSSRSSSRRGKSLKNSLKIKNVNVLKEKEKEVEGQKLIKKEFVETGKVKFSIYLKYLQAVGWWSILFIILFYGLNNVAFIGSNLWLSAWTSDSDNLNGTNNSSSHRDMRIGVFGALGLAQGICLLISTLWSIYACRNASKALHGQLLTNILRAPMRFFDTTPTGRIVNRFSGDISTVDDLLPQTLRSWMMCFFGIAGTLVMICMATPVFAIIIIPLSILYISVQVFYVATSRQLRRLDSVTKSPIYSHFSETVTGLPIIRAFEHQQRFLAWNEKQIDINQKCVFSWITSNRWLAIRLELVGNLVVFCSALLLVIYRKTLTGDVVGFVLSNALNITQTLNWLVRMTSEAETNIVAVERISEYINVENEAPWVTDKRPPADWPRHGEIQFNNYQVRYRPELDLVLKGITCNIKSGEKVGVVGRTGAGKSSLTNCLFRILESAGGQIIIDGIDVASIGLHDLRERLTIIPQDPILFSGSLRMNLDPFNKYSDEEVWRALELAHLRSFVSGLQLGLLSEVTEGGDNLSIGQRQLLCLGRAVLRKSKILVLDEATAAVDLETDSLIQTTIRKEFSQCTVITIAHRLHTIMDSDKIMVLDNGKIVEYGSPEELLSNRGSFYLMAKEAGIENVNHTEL

Activity	Structure (SMILES)
substrate []	CN1CC[C@H](c2c(O[C@@H]3O[C@H](C(=O)O)[C@@H](O)[C@H](O)[C@H]3O)cc(O)c3c(=O)cc(-c4ccccc4Cl)oc23)[C@H](O)C1
substrate []	CN1CC[C@H](c2c(O)cc(O[C@@H]3O[C@H](C(=O)O)[C@@H](O)[C@H](O)[C@H]3O)c3c(=O)cc(-c4ccccc4Cl)oc23)[C@H](O)C1
